Patent US12037333B2, “Pyridopyrazine and pyridotriazine inhibitors of influenza virus replication” (priority 2018, dated 2024)

System: Influenza type B (cell culture adapted strain B/Lee/40, ATCC VR-1535)
Assay: Influenza antiviral assay: inhibition of virus-induced cytopathic effects (CPE) in MDCK cells, XTT dye reduction
Format: cell-based
Conditions: Influenza B virus, MDCK, 96 h, strain B/Lee/40, MDCK cells, CPE inhibition at 4 days

Compared with `CC1N(C)C(=O)c2c(O)c(=O)ccn2N1C12c3ccccc3CC1Cc1c(Cl)cccc12` (centres unmarked) [Compound A94], `CCN1C(=O)c2c(O)c(=O)ccn2N(C23c4ccccc4CC2Cc2c(Cl)cccc23)C1C` (centres unmarked) [Compound A95] is lower in EC50: 250 to 375 nM for the first, < 125 nM for the second. The second is the more potent here.

`CN1CN(C23c4cc(F)ccc4CC2Cc2c(Cl)cccc23)n2ccc(=O)c(O)c2C1=O` (centres unmarked) [Compound A96] and `CN1CN(C23c4ccccc4CC2Cc2c3ccc(Cl)c2F)n2ccc(=O)c(O)c2C1=O` (centres unmarked) [Compound A160] cannot be ordered by EC50: < 125 nM for the first, < 125 nM for the second.

`CCN1CN(C23c4ccccc4CC2Cc2c3ccc(C)c2F)n2ccc(=O)c(O)c2C1=O` (centres unmarked) [Compound A98] and `CCN1CN(C23c4ccccc4CC2Cc2c3ccc(Cl)c2Cl)n2ccc(=O)c(O)c2C1=O` (centres unmarked) [Compound A161] cannot be ordered by EC50: < 125 nM for the first, < 125 nM for the second.

`O=C1c2c(O)c(=O)ccn2N(C23c4ccccc4CC2Cc2c3ccc(F)c2F)CN1CC1CCCCC1` (centres unmarked) [Compound A99] and `O=C1c2c(O)c(=O)ccn2N(C23c4ccccc4CC2Cc2c3ccc(F)c2F)CN1CC1CCCC1` (centres unmarked) [Compound A100] fall in the same range of EC50: 250 to 375 nM for the first, 250 to 375 nM for the second.

First: COCCN1CN(C23c4ccccc4CC2Cc2c(Cl)cccc23)n2ccc(=O)c(O)c2C1=O (centres unmarked) [Compound A101]
Second: O=C1c2c(O)c(=O)ccn2N(C23c4ccccc4CC2Cc2c(Cl)cccc23)CN1CCF (centres unmarked) [Compound A111]
The EC50 of the first is lower: < 125 nM for the first, 125 to 250 nM for the second.

`O=C1c2c(O)c(=O)ccn2N(C23c4ccccc4CC2Cc2c(Cl)cccc23)CN1CCCF` (centres unmarked) [Compound A102] and `O=C1c2c(O)c(=O)ccn2N(C23c4ccccc4CC2Cc2c(Cl)cccc23)CN1CC(F)F` (centres unmarked) [Compound A105] cannot be ordered by EC50: < 125 nM for the first, < 125 nM for the second.

First: O=C1c2c(O)c(=O)ccn2N(C23c4ccccc4CC2Cc2c(Cl)cccc23)CN1C1CCC1 (centres unmarked) [Compound A103]
Second: O=C1c2c(O)c(=O)ccn2N(C23c4ccccc4CC2Cc2c(Cl)cccc23)CN1CC1CCC1 (centres unmarked) [Compound A112]
The EC50 of the first is lower: 125 to 250 nM for the first, 250 to 375 nM for the second.

Compared with `O=C1c2c(O)c(=O)ccn2N(C23c4ccccc4CC2Cc2c(Cl)cccc23)CN1CC1CCCC1` (centres unmarked) [Compound A104], `O=C1c2c(O)c(=O)ccn2N(C23c4ccccc4CC2Cc2c(Cl)cccc23)CN1CC1CC1` (centres unmarked) [Compound A108] is higher in EC50: 125 to 250 nM for the first, 250 to 375 nM for the second. The first is the more potent here.

Compared with `CN1C(=O)c2c(O)c(=O)ccn2N(C23C(=Cc4c(F)cccc42)Cc2c(F)cccc23)C1CN` (centres unmarked) [Compound A106, 2-(aminomethyl)-1-(1,8-difluoroindeno[1,2-a]inden-4b(9H)-yl)-5-hydroxy-3-methyl-2,3-dihydro-1H-pyrido[2,1-f][1,2,4]triazine-4,6-dione], `CN1C(=O)c2c(O)c(=O)ccn2N(C23c4cccc(F)c4CC2Cc2c(F)cccc23)C1CN` (centres unmarked) [Compound A107, 2-(aminomethyl)-1-(1,8-difluoro-9a,10-dihydroindeno[1,2-a]inden-4b(9H)-yl)-5-hydroxy-3-methyl-2,3-dihydro-1H-pyrido[2,1-f][1,2,4]triazine-4,6-dione] is higher in EC50: < 125 nM for the first, 125 to 250 nM for the second. The first is the more potent here.

`COCCN1CN(C23c4ccccc4CC2Cc2ccccc23)n2ccc(=O)c(O)c2C1=O` (centres unmarked) [Compound A110] and `Cc1cc(CN2CN(C34c5ccccc5CC3Cc3ccccc34)n3ccc(=O)c(O)c3C2=O)no1` (centres unmarked) [Compound A144] cannot be ordered by EC50: < 125 nM for the first, < 125 nM for the second.

First: COCCN1C(=O)c2c(O)c(=O)ccn2N(C23c4ccccc4CC2Cc2c3ccc(F)c2F)C1C (centres unmarked) [Compound A113]
Second: COCCN1C(=O)c2c(O)c(=O)ccn2N(C23c4ccccc4CC2Cc2c(F)cccc23)C1C (centres unmarked) [Compound A124]
The EC50 of the first is lower: 125 to 250 nM for the first, 375 to 500 nM for the second. The first is the more potent here.

`CC1N(CCF)C(=O)c2c(O)c(=O)ccn2N1C12c3ccccc3CC1Cc1c(Cl)cccc12` (centres unmarked) [Compound A115] and `CCCN1C(=O)c2c(O)c(=O)ccn2N(C23c4ccccc4CC2Cc2c(Cl)cccc23)C1C` (centres unmarked) [Compound A132] fall in the same range of EC50: 250 to 375 nM for the first, 250 to 375 nM for the second.

`CCN1CN(C23c4ccccc4CC2(C)Cc2cc(F)ccc23)n2ccc(=O)c(O)c2C1=O` (centres unmarked) [Compound A116] and `CN1CN(C23c4ccccc4CC2(C)Cc2cc(F)ccc23)n2ccc(=O)c(O)c2C1=O` (centres unmarked) [Compound A126] cannot be ordered by EC50: < 125 nM for the first, < 125 nM for the second.

`CC(C)CN1C(=O)c2c(O)c(=O)ccn2N(C23c4ccccc4CC2Cc2c(F)cccc23)C1C` (centres unmarked) [Compound A117] and `CC(C)CN1C(=O)c2c(O)c(=O)ccn2N(C23c4ccccc4CC2Cc2c(Cl)cccc23)C1C` (centres unmarked) [Compound A118] fall in the same range of EC50: 250 to 375 nM for the first, 250 to 375 nM for the second.

Compared with `CC1N(CCF)C(=O)c2c(O)c(=O)ccn2N1C12c3ccccc3CC1Cc1c(F)cccc12` (centres unmarked) [Compound A121], `CCN1C(=O)c2c(O)c(=O)ccn2N(C23c4ccccc4CC2Cc2c(F)cccc23)C1C` (centres unmarked) [Compound A138] is lower in EC50: 125 to 250 nM for the first, < 125 nM for the second. The second is the more potent here.

First: COCCN1C(=O)c2c(O)c(=O)ccn2N(C23c4ccccc4CC2Cc2c(Cl)cccc23)C1C (centres unmarked) [Compound A125]
Second: CC1N(CC2CC2)C(=O)c2c(O)c(=O)ccn2N1C12c3ccccc3CC1Cc1c(Cl)cccc12 (centres unmarked) [Compound A140]
The EC50 of the first is lower: 125 to 250 nM for the first, 250 to 375 nM for the second. The first is the more potent here.

`CC(C)CN1C(=O)c2c(O)c(=O)ccn2N(C23c4ccccc4CC2Cc2c3ccc(F)c2F)C1C` (centres unmarked) [Compound A127] and `CC1N(CC(F)F)C(=O)c2c(O)c(=O)ccn2N1C12c3ccccc3CC1Cc1c2ccc(F)c1F` (centres unmarked) [Compound A136] fall in the same range of EC50: 250 to 375 nM for the first, 250 to 375 nM for the second.

`CC1N(CC2CC2)C(=O)c2c(O)c(=O)ccn2N1C12c3ccccc3CC1Cc1c2ccc(F)c1F` (centres unmarked) [Compound A128] and `CC1N(CC2CC2)C(=O)c2c(O)c(=O)ccn2N1C12c3ccccc3CC1Cc1c(F)cccc12` (centres unmarked) [Compound A129] fall in the same range of EC50: 125 to 250 nM for the first, 125 to 250 nM for the second.

`O=C1c2c(O)c(=O)ccn2N(C23c4cccc(F)c4CC2Cc2c(F)cccc23)CN1CC1CCCCO1` (centres unmarked) [Compound A130] and `O=C1c2c(O)c(=O)ccn2N(C23c4ccccc4CC2Cc2c(F)cccc23)CN1CC1CCCCO1` (centres unmarked) [Compound A133] fall in the same range of EC50: 125 to 250 nM for the first, 125 to 250 nM for the second.

`O=C1c2c(O)c(=O)ccn2N(C23c4ccccc4CC2Cc2c3ccc(F)c2F)CN1CC1CCCCO1` (centres unmarked) [Compound A131] and `CCCN1CN(C23c4ccccc4CC2Cc2c3ccc(F)c2F)n2ccc(=O)c(O)c2C1=O` (centres unmarked) [Compound A148] fall in the same range of EC50: 125 to 250 nM for the first, 125 to 250 nM for the second.

Compared with `CC1N(CC(F)F)C(=O)c2c(O)c(=O)ccn2N1C12c3ccccc3CC1Cc1c(F)cccc12` (centres unmarked) [Compound A139], `CC1N(C2CCC2)C(=O)c2c(O)c(=O)ccn2N1C12c3ccccc3CC1Cc1c(F)cccc12` (centres unmarked) [Compound A141] is higher in EC50: 125 to 250 nM for the first, 250 to 375 nM for the second. The first is the more potent here.

First: CN1CN(C23c4ccccc4CC2Cc2cccc(F)c23)n2ccc(=O)c(O)c2C1=O (centres unmarked) [Compound A145]
Second: CN1CN(C23c4ccccc4CC2Cc2c3ccc(Cl)c2Cl)n2ccc(=O)c(O)c2C1=O (centres unmarked) [Compound A146]
The EC50 of the first is lower: < 125 nM for the first, 125 to 250 nM for the second.

`CCN1CN(C23c4ccccc4CC2(C)Cc2ccccc23)n2ccc(=O)c(O)c2C1=O` (centres unmarked) [Compound A147] and `CCN1CN(C23c4ccccc4CC2(OC)Cc2ccccc23)n2ccc(=O)c(O)c2C1=O` (centres unmarked) [Compound A152] fall in the same range of EC50: 125 to 250 nM for the first, 125 to 250 nM for the second.

First: CC(C)CN1CN(C23c4ccccc4CC2Cc2c3ccc(F)c2F)n2ccc(=O)c(O)c2C1=O (centres unmarked) [Compound A149]
Second: CC(C)CN1CN(C23c4cccc(F)c4CC2Cc2c(F)cccc23)n2ccc(=O)c(O)c2C1=O (centres unmarked) [Compound A156]
The EC50 of the first is lower: < 125 nM for the first, 125 to 250 nM for the second. The first is the more potent here.

`CN1CN(C23c4ccccc4CC2(C)Cc2ccccc23)n2ccc(=O)c(O)c2C1=O` (centres unmarked) [Compound A150] and `CCC12Cc3ccccc3C1(N1CN(C)C(=O)c3c(O)c(=O)ccn31)c1ccccc1C2` (centres unmarked) [Compound A162] cannot be ordered by EC50: < 125 nM for the first, < 125 nM for the second.

`CCN1CN(C23c4cccc(F)c4CC2Cc2c(Cl)cccc23)n2ccc(=O)c(O)c2C1=O` (centres unmarked) [Compound A151] and `CCCN1CN(C23c4cccc(F)c4CC2Cc2c(F)cccc23)n2ccc(=O)c(O)c2C1=O` (centres unmarked) [Compound A153] fall in the same range of EC50: 125 to 250 nM for the first, 125 to 250 nM for the second.

First: CCN1CN(C23c4ccccc4CC2(CC)Cc2ccccc23)n2ccc(=O)c(O)c2C1=O (centres unmarked) [Compound A157]
Second: CCN1CN(C23c4ccccc4CC2(C)Cc2c3ccc(F)c2F)n2ccc(=O)c(O)c2C1=O (centres unmarked) [Compound A164]
The EC50 of the first is higher: 125 to 250 nM for the first, < 125 nM for the second.

First: CC1N(C)C(=O)c2c(O)c(=O)ccn2N1C12c3ccccc3CC1Cc1ccccc12 (centres unmarked) [Compound A158]
Second: CCC1N(C)C(=O)c2c(O)c(=O)ccn2N1C12c3ccccc3CC1Cc1ccccc12 (centres unmarked) [Compound A166]
The EC50 of the first is higher: 125 to 250 nM for the first, < 125 nM for the second.

`CN1CN(C23c4ccccc4CC2(C)Cc2c3ccc(F)c2F)n2ccc(=O)c(O)c2C1=O` (centres unmarked) [Compound A165] and `CC(C)N1CN(C23c4ccccc4CC2(C)Cc2c3ccc(F)c2F)n2ccc(=O)c(O)c2C1=O` (centres unmarked) [Compound A167] cannot be ordered by EC50: < 125 nM for the first, < 125 nM for the second.

Same assay, conditions: strain B/Lee/40, MDCK cells, CPE inhibition at 4 days

In the case of `O=C1c2c(O)c(=O)ccn2N(C23c4ccccc4CC2Cc2c(Cl)cccc23)CN1CCF` (centres unmarked) [Compound A114], the EC50 is reported as 125 to 250 nM.
